IC50 data for 25 molecules are collected here from US8426437B2, “Pyrroloquinoline derivatives and their use as protein kinases inhibitors” (Pierre Fabre Medicament, priority 2005, dated 2013).

T1 sequence (P07949 29-1114): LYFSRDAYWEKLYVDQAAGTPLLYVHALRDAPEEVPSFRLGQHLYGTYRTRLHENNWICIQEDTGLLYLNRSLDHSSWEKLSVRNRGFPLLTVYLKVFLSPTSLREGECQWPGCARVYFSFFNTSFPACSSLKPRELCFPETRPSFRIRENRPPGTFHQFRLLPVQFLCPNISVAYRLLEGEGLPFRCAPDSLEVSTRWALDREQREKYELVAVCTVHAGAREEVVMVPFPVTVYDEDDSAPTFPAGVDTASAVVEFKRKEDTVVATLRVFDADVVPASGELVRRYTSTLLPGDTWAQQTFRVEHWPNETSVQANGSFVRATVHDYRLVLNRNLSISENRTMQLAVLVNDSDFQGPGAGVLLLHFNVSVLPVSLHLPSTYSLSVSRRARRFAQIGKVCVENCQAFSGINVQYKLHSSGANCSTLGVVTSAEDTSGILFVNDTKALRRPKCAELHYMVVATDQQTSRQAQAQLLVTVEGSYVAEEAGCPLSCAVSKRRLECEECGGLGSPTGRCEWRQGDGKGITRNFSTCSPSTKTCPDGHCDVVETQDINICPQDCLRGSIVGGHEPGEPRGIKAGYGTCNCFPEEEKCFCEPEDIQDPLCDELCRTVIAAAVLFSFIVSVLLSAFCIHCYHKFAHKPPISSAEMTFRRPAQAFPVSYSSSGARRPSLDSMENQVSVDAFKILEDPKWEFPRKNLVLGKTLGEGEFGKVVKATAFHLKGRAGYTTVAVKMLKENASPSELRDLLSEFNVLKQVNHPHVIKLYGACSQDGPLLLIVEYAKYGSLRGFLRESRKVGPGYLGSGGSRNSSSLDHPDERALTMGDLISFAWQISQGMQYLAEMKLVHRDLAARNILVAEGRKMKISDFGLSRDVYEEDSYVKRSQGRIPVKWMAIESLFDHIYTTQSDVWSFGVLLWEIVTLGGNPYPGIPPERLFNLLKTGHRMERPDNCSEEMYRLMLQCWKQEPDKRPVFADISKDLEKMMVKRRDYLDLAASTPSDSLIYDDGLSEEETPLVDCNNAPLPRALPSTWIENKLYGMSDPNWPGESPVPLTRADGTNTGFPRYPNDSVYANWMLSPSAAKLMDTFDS

This assay has as its target T1, RET (Homo sapiens, UniProt P07949).
T1 construct: purchased Upstate 14-570MG
Description: Inhibition of RET kinase activity, recombinant RET method (Kinase-Glo). The settings on record: RET 2 μg/ml, poly-EY4 substrate, 20 μM ATP, two hours at 30° C. It counts as biochemical. The procedure: The inhibition of the kinase activity of the compounds of the invention is assessed by measuring their IC50 on RET.
where: • Y is the value of the luminescence • X is the logarithm of the concentration of the compound • Bottom is the minimum Y value • Top is the maximum Y value • LogIC50 is the value of X when Y is 50% from Top—Bottom.
The quantity of RET required is 2 μg/ml.
The following buffer is used for dilution of RET: 20 mM MOPS/NaOH pH7.0, 1 mM EDTA, 5% glycerol, 0.01% Brij35 (Sigma B4184), 0.1% 2-mercaptoethanol, 1 mg/ml BSA (Sigma A3059-10G).
The dilution of the compounds of the invention is distributed so as to obtain a scale of final concentrations between 10 nM and 30 μM.
After incubation of the reaction mixture for two hours at 30° C., the level of ATP that remains is assayed using the Kinase-Glo Luminescent Kinase Assay (Promega #V6712) according to the conditions recommended by the supplier. The luminescence induced is read in a plate reader (Envision-Perkin Elmer).
As to `CCOC(=O)c1c[nH]c2c(=O)[nH]c3ccc(C(=O)/C=C/N(C)C)cc3c12` [Compound 217, 8-(3-Dimethylamino-acryloyl)-4-oxo-4,5-dihydro-3H-pyrrolo[2,3-c]quinoline-1-ethyl carboxylate], the IC50 was in the range of 100 to 1000 nM.

Take `CCOC(=O)c1c[nH]c2c(=O)[nH]c3ccc(NS(=O)(=O)c4ccc(Cl)cc4)cc3c12` [Compound 40, 8-(4-Chloro-benzenesulfonylamino)-4-oxo-4,5-dihydro-3H-pyrrolo[2,3-c]quinoline-1-ethyl carboxylate]: the 50% inhibitory concentration (IC50) is 100 to 1000 nM.

For the molecule `CCOC(=O)c1c[nH]c2c(=O)[nH]c3ccc(S(=O)(=O)Nc4cccnc4)cc3c12` [Compound 23, 4-Oxo-8-(pyridin-3-ylsulfamoyl)-4,5-dihydro-3H-pyrrolo[2,3-c]quinoline-1-ethyl carboxylate], the concentration for half-maximal inhibition (IC50) lay in the range of 100 to 1000 nM.

For the molecule `CCOC(=O)c1c[nH]c2c(=O)[nH]c3ccc(C#CCN(C)C)cc3c12` [Compound 203, 8-(3-Dimethylamino-prop-1-ynyl)-4-oxo-4,5-dihydro-3H-pyrrolo[2,3-c]quinoline-1-ethyl carboxylate], the IC50 is 100 to 1000 nM.

Consider `CCOC(=O)c1c[nH]c2c(=O)[nH]c3cc(OC)c(I)cc3c12` [Compound 214, 8-Iodo-7-methoxy-4-oxo-4,5-dihydro-3H-pyrrolo[2,3-c]quinoline-1-ethyl carboxylate], for which the half-inhibitory concentration (IC50) is 1000 to 10000 nM.

As for `CCOC(=O)c1c[nH]c2c(=O)[nH]c3ccc(-c4ccccc4NC(=O)OC(C)(C)C)cc3c12` [Compound 230, 8-(2-tert-Butoxycarbonylaminophenyl)-4-oxo-4,5-dihydro-3H-pyrrolo[2,3-c]quinoline-1-ethyl carboxylate], the IC50 was in the range of 10000 to 100000 nM.

On to `CCCOC(=O)c1c[nH]c2c(=O)[nH]c3ccc(S(=O)(=O)N(C)CCN(CC)CC)cc3c12` [Compound 138, 8-[(2-Diethylamino-ethyl)-methyl-sulfamoyl]-4-oxo-4,5-dihydro-3H-pyrrolo[2,3-c]quinoline-1-propyl carboxylate], for which the IC50 was 100 to 1000 nM.

Consider `CCOC(=O)c1c[nH]c2c(=O)[nH]c3ccc(S(=O)(=O)Nc4ccc(Cl)cc4)cc3c12` [Compound 11, 8-(4-Chlorophenylsulfamoyl)-4-oxo-4,5-dihydro-3H-pyrrolo[2,3-c]quinoline-1-ethyl carboxylate], for which the half-inhibitory concentration (IC50) was 100 to 1000 nM.

As to `CCOC(=O)c1c[nH]c2c(=O)[nH]c3ccc(-c4cccc(NC(=O)OC(C)(C)C)c4)cc3c12` [Compound 233, 8-(3-tert-Butoxycarbonylaminophenyl)-4-oxo-4,5-dihydro-3H-pyrrolo[2,3-c]quinoline-1-ethyl carboxylate], the IC50 was 1000 to 10000 nM.

Turning to `CCOC(=O)c1c[nH]c2c(=O)[nH]c3ccc(C(=O)CN4CCOCC4)cc3c12` [Compound 218, 8-(2-Morpholin-4-yl-acetyl)-4-oxo-4,5-dihydro-3H-pyrrolo[2,3-c]quinoline-ethyl carboxylate], the IC50 lay within 1000 to 10000 nM.

As for `CCCOC(=O)c1c[nH]c2c(=O)[nH]c3ccc(S(=O)(=O)N(C)C4CCSCC4)cc3c12` [Compound 131, 8-[Methyl-(tetrahydro-thiopyran-4-yl)-sulfamoyl]-4-oxo-4,5-dihydro-3H-pyrrolo[2,3-c]quinoline-1-propyl carboxylate], the 50% inhibitory concentration (IC50) lay within 100 to 1000 nM.

In the case of `CCOC(=O)c1c[nH]c2c(=O)[nH]c3ccc(-c4csc(Nc5ccc(Cl)c(Cl)c5)n4)cc3c12` [Compound 273, 8-[2-(3,4-Dichlorophenylamino)-thiazol-4-yl]-4-oxo-4,5-dihydro-3H-pyrrolo[2,3-c]quinoline-1-ethyl carboxylate], the IC50 is 1000 to 10000 nM.

Consider `CCOC(=O)c1c[nH]c2c(=O)[nH]c3ccc(-c4ccccc4)cc3c12` [Compound 228, 4-Oxo-8-phenyl-4,5-dihydro-3H-pyrrolo[2,3-c]quinoline-1-ethyl carboxylate], for which the IC50 lay within 1000 to 10000 nM.

Consider `CCCOC(=O)c1c[nH]c2c(=O)[nH]c3ccc(S(=O)(=O)N(CCOCc4ccccc4)C4CC4)cc3c12` [Compound 181, 8-[(2-Benzyloxy-ethyl)-cyclopropyl-sulfamoyl]-4-oxo-4,5-dihydro-3H-pyrrolo[2,3-c]quinoline-1-propyl carboxylate], for which the 50% inhibitory concentration (IC50) lay within 1000 to 10000 nM.

Consider `CCOC(=O)c1c[nH]c2c(=O)[nH]c3ccc(S(=O)(=O)Nc4ccc(O)cc4)cc3c12` [Compound 98, 8-(4-Hydroxy-phenylsulfamoyl)-4-oxo-4,5-dihydro-3H-pyrrolo[2,3-c]quinoline-1-ethyl carboxylate], for which the IC50 is under 100 nM.

Take `CC(C)OC(=O)c1c[nH]c2c(=O)[nH]c3ccccc3c12` [Compound 78, 4-Oxo-4,5-dihydro-3H-pyrrolo[2,3-c]quinoline-1-carboxylate isopropyl]: the IC50 was in the range of 1000 to 10000 nM.

On to `O=C(OCc1ccccc1)c1c[nH]c2c(=O)[nH]c3ccccc3c12` [Compound 74, 4-Oxo-4,5-dihydro-3H-pyrrolo[2,3-c]quinoline-1-carboxylate benzyl], for which the half-maximal inhibitory concentration (IC50) is 1000 to 10000 nM.

With `CCOC(=O)c1c[nH]c2c(=O)[nH]c3ccc(-c4cccc5cccnc45)cc3c12` [Compound 250, 4-Oxo-8-quinolin-8-yl-4,5-dihydro-3H-pyrrolo[2,3-c]quinoline-1-ethyl carboxylate], the IC50 fell in the range of 1000 to 10000 nM.

With `CCOC(=O)c1c[nH]c2c(=O)[nH]c3ccc(NS(=O)(=O)c4ccc5ccccc5c4)cc3c12` [Compound 54, 8-(Naphthalene-2-sulfonylamino)-4-oxo-4,5-dihydro-3H-pyrrolo[2,3-c]quinoline-1-ethyl carboxylate], the IC50 was in the range of 10000 to 100000 nM.

Regarding `CCCOC(=O)c1c[nH]c2c(=O)[nH]c3ccc(S(=O)(=O)N(CCO)C(C)C)cc3c12` [Compound 173, 8-[(2-Hydroxy-ethyl)isopropyl-sulfamoyl]-4-oxo-4,5-dihydro-3H-pyrrolo[2,3-c]quinoline-1-propyl carboxylate], the IC50 was under 100 nM.

For `CCCOC(=O)c1c[nH]c2c(=O)[nH]c3ccc(S(=O)(=O)N(C[C@H]4CCCN4C(=O)OC(C)(C)C)C4CC4)cc3c12` [Compound 147, (R)-8-[(1-tert-Butoxycarbony-pyrrolidin-2-ylmethyl)-cyclopropyl-sulfamoyl]-4-oxo-4,5-dihydro-3H-pyrrolo[2,3-c]quinoline-1-propyl carboxylate], the 50% inhibitory concentration (IC50) lay within 1000 to 10000 nM.

Consider `CCOC(=O)c1c[nH]c2c(=O)[nH]c3cc(F)ccc3c12` [Compound 215, 7-Fluoro-4-oxo-4,5-dihydro-3H-pyrrolo[2,3-c]quinoline-1-ethyl carboxylate], for which the half-inhibitory concentration (IC50) lay in the range of 1000 to 10000 nM.

Turning to `O=C(Nc1ccccc1)c1c[nH]c2c(=O)[nH]c3ccccc3c12` [Compound 87, N-(Phenyl)-4-oxo-4,5-dihydro-3H-pyrrolo[2,3-c]quinoline-1-carboxamide], the concentration for half-maximal inhibition (IC50) was in the range of 10000 to 100000 nM.

In the case of `CCOC(=O)c1c[nH]c2c(=O)[nH]c3ccc(-c4cccc(NS(C)(=O)=O)c4)cc3c12` [Compound 235, 8-(3-Methanesulfonylaminophenyl)-4-oxo-4,5-dihydro-3H-pyrrolo[2,3-c]quinoline-1-ethyl carboxylate], the half-maximal inhibitory concentration (IC50) lay within 100 to 1000 nM.

Consider `CCOC(=O)c1c[nH]c2c(=O)[nH]c3ccc(S(=O)(=O)Nc4ccc(F)c(F)c4)cc3c12` [Compound 18, 8-(3,4-Difluorophenylsulfamoyl)-4-oxo-4,5-dihydro-3H-pyrrolo[2,3-c]quinoline-1-ethyl carboxylate], for which the IC50 was under 100 nM.
